Measurements: PubChem BioAssay (NCI)
“And” between values parts separate entries of the source, which are not always exact repeats. Equal entries are not always repeated.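 Cells were grown in 96-well plates and exposed to each compound for 48 hours at five concentrations; endpoints were interpolated linearly between bracketing concentrations, or set to the highest concentration if not reached. The concentration for 50% growth inhibition is given as GI50. TGI: concentration producing complete growth inhibition.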

Assays:
Experiment in all cases: growth of human tumour cells (NCI), 48 h
HT29 colon = test system: HT29 colon
ACHN renal = test system: ACHN renal
PC-3 prostate = test system: PC-3 prostate
MOLT-4 leukemia = test system: MOLT-4 leukemia
NCI-H226 lung = test system: NCI-H226 lung
T-47D breast = test system: T-47D breast
SF-295 CNS = test system: SF-295 CNS
U251 CNS = test system: U251 CNS
UO-31 renal = test system: UO-31 renal
SK-MEL-2 melanoma = test system: SK-MEL-2 melanoma
NCI/ADR-RES ovarian = test system: NCI/ADR-RES ovarian
UACC-62 melanoma = test system: UACC-62 melanoma
SR leukemia = test system: SR leukemia
MDA-MB-435 = test system: MDA-MB-435
HOP-92 NSCLC = test system: HOP-92 NSCLC
NCI-H23 lung = test system: NCI-H23 lung
EKVX NSCLC = test system: EKVX NSCLC
MDA-MB-231 breast = test system: MDA-MB-231 breast
IGROV1 ovarian = test system: IGROV1 ovarian
786-0 renal = test system: 786-0 renal
MCF7 breast = test system: MCF7 breast
BT-549 breast = test system: BT-549 breast
TK-10 renal = test system: TK-10 renal
SF-268 CNS = test system: SF-268 CNS
CCRF-CEM leukemia = test system: CCRF-CEM leukemia
M14 melanoma = test system: M14 melanoma
SK-MEL-5 melanoma = test system: SK-MEL-5 melanoma
SK-OV-3 ovarian = test system: SK-OV-3 ovarian
HCT-15 colon = test system: HCT-15 colon
RXF 393 renal = test system: RXF 393 renal
DU-145 prostate = test system: DU-145 prostate
SK-MEL-28 melanoma = test system: SK-MEL-28 melanoma
HCT-116 colon = test system: HCT-116 colon
HOP-62 NSCLC = test system: HOP-62 NSCLC
OVCAR-3 ovarian = test system: OVCAR-3 ovarian
HL-60(TB) leukemia = test system: HL-60(TB) leukemia
OVCAR-4 ovarian = test system: OVCAR-4 ovarian
A498 renal = test system: A498 renal
A549 NSCLC = test system: A549 NSCLC
SW-620 colon = test system: SW-620 colon
SF-539 CNS = test system: SF-539 CNS
MALME-3M melanoma = test system: MALME-3M melanoma
SN12C renal = test system: SN12C renal
MDA-N = test system: MDA-N
CAKI-1 renal = test system: CAKI-1 renal
HS 578T breast = test system: HS 578T breast
RPMI-8226 leukemia = test system: RPMI-8226 leukemia
SNB-75 CNS = test system: SNB-75 CNS
KM12 colon = test system: KM12 colon
LOX IMVI melanoma = test system: LOX IMVI melanoma
UACC-257 melanoma = test system: UACC-257 melanoma
OVCAR-5 ovarian = test system: OVCAR-5 ovarian
HCC-2998 colon = test system: HCC-2998 colon
NCI-H460 lung = test system: NCI-H460 lung
NCI-H522 lung = test system: NCI-H522 lung
OVCAR-8 ovarian = test system: OVCAR-8 ovarian
SNB-19 CNS = test system: SNB-19 CNS
K-562 leukemia = test system: K-562 leukemia
COLO 205 colon = test system: COLO 205 colon

## O=C(Nc1cccc(Cl)c1)Nn1cnnc1
HT29 colon
  GI50: > 50 µM
  TGI: > 100 µM
ACHN renal
  GI50: > 50 µM
  TGI: > 100 µM
PC-3 prostate
  GI50: > 50 µM
  TGI: > 100 µM
MOLT-4 leukemia
  GI50: > 50 µM
  TGI: > 100 µM
NCI-H226 lung
  GI50: > 50 µM
  TGI: > 100 µM
T-47D breast
  GI50: > 50 µM
  TGI: > 100 µM
SF-295 CNS
  GI50: > 50 µM
  TGI: > 100 µM
U251 CNS
  GI50: > 50 µM
  TGI: > 100 µM
UO-31 renal
  GI50: > 50 µM
  TGI: > 100 µM
SK-MEL-2 melanoma
  GI50: > 50 µM
  TGI: > 100 µM
NCI/ADR-RES ovarian
  GI50: > 50 µM
  TGI: > 100 µM
UACC-62 melanoma
  GI50: > 50 µM
  TGI: > 100 µM
SR leukemia
  TGI: > 100 µM
MDA-MB-435
  GI50: > 50 µM
  TGI: > 100 µM
HOP-92 NSCLC
  GI50: 12.7 µM
  TGI: 50 µM and > 100 µM
NCI-H23 lung
  GI50: > 50 µM
  TGI: > 100 µM
EKVX NSCLC
  TGI: > 100 µM
MDA-MB-231 breast
  GI50: > 50 µM
  TGI: > 100 µM
IGROV1 ovarian
  GI50: > 50 µM
  TGI: > 100 µM
786-0 renal
  GI50: > 50 µM
  TGI: > 100 µM
MCF7 breast
  GI50: > 50 µM
  TGI: > 100 µM
BT-549 breast
  GI50: > 50 µM
  TGI: > 100 µM
TK-10 renal
  GI50: > 50 µM
  TGI: > 100 µM
SF-268 CNS
  GI50: > 50 µM
  TGI: > 100 µM
CCRF-CEM leukemia
  GI50: > 50 µM
  TGI: > 100 µM
M14 melanoma
  GI50: > 50 µM
  TGI: > 100 µM
SK-MEL-5 melanoma
  GI50: > 50 µM
  TGI: > 100 µM
SK-OV-3 ovarian
  GI50: > 50 µM
  TGI: > 100 µM
HCT-15 colon
  GI50: > 50 µM
  TGI: > 100 µM
RXF 393 renal
  GI50: > 50 µM
  TGI: > 100 µM
DU-145 prostate
  GI50: > 50 µM
  TGI: > 100 µM
SK-MEL-28 melanoma
  GI50: > 50 µM
  TGI: > 100 µM
HCT-116 colon
  GI50: > 50 µM
  TGI: > 100 µM
HOP-62 NSCLC
  GI50: > 50 µM
  TGI: > 100 µM
OVCAR-3 ovarian
  GI50: > 50 µM
  TGI: > 100 µM
HL-60(TB) leukemia
  GI50: > 50 µM
  TGI: > 100 µM
OVCAR-4 ovarian
  GI50: > 50 µM
  TGI: > 100 µM
A498 renal
  GI50: > 50 µM
  TGI: > 100 µM
A549 NSCLC
  GI50: > 50 µM
  TGI: > 100 µM
SW-620 colon
  GI50: > 50 µM
  TGI: > 100 µM
SF-539 CNS
  GI50: > 50 µM
  TGI: > 100 µM
MALME-3M melanoma
  GI50: > 50 µM
  TGI: > 100 µM
SN12C renal
  GI50: > 50 µM
  TGI: > 100 µM
MDA-N
  TGI: > 100 µM
CAKI-1 renal
  GI50: > 50 µM
  TGI: > 100 µM
HS 578T breast
  GI50: > 50 µM
  TGI: > 100 µM
RPMI-8226 leukemia
  GI50: > 50 µM
  TGI: > 100 µM
SNB-75 CNS
  GI50: > 50 µM
  TGI: > 100 µM
KM12 colon
  GI50: > 50 µM
  TGI: > 100 µM
LOX IMVI melanoma
  GI50: > 50 µM
  TGI: > 50 µM
UACC-257 melanoma
  GI50: > 50 µM
  TGI: > 100 µM
OVCAR-5 ovarian
  GI50: > 50 µM
  TGI: > 50 µM and 22.5 µM
HCC-2998 colon
  GI50: > 50 µM
  TGI: > 100 µM
NCI-H460 lung
  GI50: > 50 µM
  TGI: > 100 µM
NCI-H522 lung
  GI50: > 50 µM
  TGI: > 100 µM
OVCAR-8 ovarian
  GI50: > 50 µM
  TGI: > 100 µM
SNB-19 CNS
  GI50: > 50 µM
  TGI: > 100 µM
K-562 leukemia
  GI50: > 50 µM
  TGI: > 100 µM
COLO 205 colon
  GI50: > 50 µM
  TGI: > 100 µM

## C=CCc1c(Cl)nc(Cl)nc1Cl
HT29 colon
  TGI: 0.805 µM
ACHN renal
  TGI: 1.2 µM
PC-3 prostate
  TGI: 2.92 µM
MOLT-4 leukemia
  TGI: 0.0625 µM
NCI-H226 lung
  TGI: 1.69 µM
T-47D breast
  TGI: 0.979 µM
SF-295 CNS
  TGI: 3.94 µM
U251 CNS
  TGI: 1.74 µM
UO-31 renal
  TGI: 0.165 µM
NCI/ADR-RES ovarian
  TGI: > 49.4 µM
UACC-62 melanoma
  TGI: 2.07 µM
SR leukemia
  TGI: > 100 µM
MDA-MB-435
  TGI: 1.4 µM
HOP-92 NSCLC
  TGI: 0.749 µM
NCI-H23 lung
  TGI: 1.81 µM
EKVX NSCLC
  TGI: 2.58 µM
MDA-MB-231 breast
  TGI: 1.82 µM
IGROV1 ovarian
  TGI: 1.36 µM
786-0 renal
  TGI: 0.368 µM
MCF7 breast
  TGI: 0.668 µM
BT-549 breast
  TGI: 0.641 µM
TK-10 renal
  TGI: 3.35 µM
SF-268 CNS
  TGI: 14.4 µM
CCRF-CEM leukemia
  TGI: 0.0234 µM
M14 melanoma
  TGI: 0.0714 µM
SK-MEL-5 melanoma
  TGI: 0.301 µM
SK-OV-3 ovarian
  TGI: 9.12 µM
HCT-15 colon
  TGI: 0.938 µM
RXF 393 renal
  TGI: 0.601 µM
DU-145 prostate
  TGI: 4.86 µM
SK-MEL-28 melanoma
  TGI: 1.93 µM
HCT-116 colon
  TGI: 1.18 µM
HOP-62 NSCLC
  TGI: 1.07 µM
OVCAR-3 ovarian
  TGI: 0.311 µM
HL-60(TB) leukemia
  TGI: > 100 µM
OVCAR-4 ovarian
  TGI: 0.84 µM
A498 renal
  TGI: 3.49 µM
A549 NSCLC
  TGI: 5.91 µM
SW-620 colon
  TGI: 0.583 µM
SF-539 CNS
  TGI: 3.78 µM
MALME-3M melanoma
  TGI: 1.47 µM
SN12C renal
  TGI: 1.46 µM
MDA-N
  TGI: 0.116 µM
CAKI-1 renal
  TGI: 0.0367 µM
HS 578T breast
  TGI: 4.14 µM
RPMI-8226 leukemia
  TGI: > 100 µM
SNB-75 CNS
  TGI: 5.87 µM
KM12 colon
  TGI: 0.888 µM
LOX IMVI melanoma
  TGI: 0.344 µM
UACC-257 melanoma
  TGI: 1.9 µM
OVCAR-5 ovarian
  TGI: 2.02 µM
HCC-2998 colon
  TGI: 3.4 µM
NCI-H460 lung
  TGI: 3.55 µM
NCI-H522 lung
  TGI: 0.19 µM
OVCAR-8 ovarian
  TGI: 1.32 µM
SNB-19 CNS
  TGI: 2.21 µM
K-562 leukemia
  TGI: 0.125 µM
COLO 205 colon
  TGI: 0.696 µM
